The text below walks through data of US10758541B2, “Formulations of milciclib and therapeutic combinations of the same for use in the treatment of cancer” (Tiziana Life Sciences PLC, priority 2017, dated 2020).

For test [1], the system named is MHCC97L cells. As to the kind of experiment: Wound healing assay. In kind it is cell-based, human. Conditions: scratched monolayer of MHCC97L cells, 96 hours, vs vehicle control. How it is done: (§1) Cells were seeded at a density of 500,000 cells/2 mL/well on to a collagen-coated 6-well culture plate and incubated overnight in a humidified CO2 incubator at 37° C. to form a uniform monolayer. The monolayer was then scratched in a straight line with a new 10 μL pipette tip across the center of the well. After scratching, cells were washed with sterile PBS once to remove detached cells. Subsequently, wells were replenished with fresh DMEM/F12 containing 2% FBS and the test article either alone or in combination with milciclib. […] Images were analyzed using SlideBook™ 5 software. The values were expressed as a percentage of migration. See Saxena N K, Sharma D, Ding X, et al. Concomitant activation of the JAK/STAT, PI3K/AKT, and ERK signaling is involved in leptin-mediated promotion of invasion and migration of hepatocellular carcinoma cells. Cancer Res. 2007; 67: 2497-2507.

Another test concerns HepG2.2.15 cells. The experiment in a line: Wound healing assay. It counts as cell-based, human. Conditions: scratched monolayer of HepG2.2.15 cells, 96 hours, vs vehicle control. As to the method: as §1
Test [2] concerns MHCC97H cells. As to the kind of experiment: IC50 values by cell proliferation assay (WST-1). In kind it is cell-based, human. Conditions: Homo sapiens, MHCC97H, 72 h, individual inhibitor, 72 hours, WST-1; read-out: MHCC97H IC50. How it is done: MHCC97H and MHCC97L (highly metastatic hepatocellular carcinoma cell line, derived from humans)
Cells (MHCC97H, MHCC97L, and HepG2.2.15) were cultured for 24 hours in 2% FBS and then were trypsinized, resuspended in 2% FBS and seeded in a rat collagen coated 96-well plate at a density of 10,000 cells/100 μl/well, a day before the experiment and cultured at 37° C. in 5% CO2. The cells were treated the next day with milciclib, sorafenib, regorafenib, sunitinib, and lenvatinib, individually or in combination in DMEM/F12+2% FBS+for 72 hours prior to the addition of WST-1 reagent. About 100 μL media was added to control well. […] To determine cell proliferation by the colorimetric test, 10 μL of WST-1 reagent (Sigma Aldrich, St Louis, Mo.) was added in 100 μL cell culture media and incubated for 2 hours in 5% CO2 at 37° C. At the end of incubation period, the plate was placed on a plate shaker for 1 minute and was monitored using a spectrophotometer at an optical density of 450 nm with a reference wavelength of 600 nm using Tecan F200 and iControl software. IC50 values were determined using GraphPad Prism (GraphPad Software, La Jolla, Calif.). Each experiment was performed in duplicate and repeated 2 times.
(In general: Tetrazolium assays rely on reduction of a dye to a coloured formazan, in cell work by metabolically active cells.)

The subject of test [3] is MHCC97L cells. The experiment in a line: EMT transwell invasion assay. In kind it is cell-based, human. Conditions: agent alone, 10 days, P<0.05. As to the method: (§2) EMT (Epithelial to Mesenchymal Transition) induction employing kit from R&D systems (Cat # CCM017)
(§3) For transwell invasion assay HCC cells were seeded in the top chamber in 6 well transwell plates (Sigma-Aldrich, St. Louis, Mo.) at a density of 100,000 cells/500 μL/well in standard culture media containing 100× StemXVivo® EMT Inducing Media Supplement (R&D systems, Minneapolis, Minn.) and was incubated overnight at 37° C. in humidified CO2 incubator. Next day, EMT inducing media with or without the test articles was added and incubation was continued for 10 days with media changes every 3 days. On the 10th day, the number of cells migrated to the lower chamber was determined using Bio-Rad (Hercules, Calif.) automatic cell counter. Values obtained were expressed as a percentage of invasion and the cell counts of control cells were considered 100%.
(§4) The invasive potential of cancer cells is dependent on losing epithelial characteristics and acquiring a migratory mesenchymal property referred to as Epithelial to Mesenchymal Transition (EMT).

Test [4] has as its system MHCC97H cells. The experiment in a line: EMT transwell invasion assay. In kind it is cell-based, human. Conditions: agent alone, 10 days, P<0.05. How it is done:
as §2, §3, §4

Test [5] deals with pAKT (Ser473), AKT, c-Myc, Cyclin D1, PTEN. As to the kind of experiment: Western blot analysis of tumor tissues. It counts as in vivo, mice. As to conditions: liver samples, vs vehicle treated group. As to the method: The tumor tissues from a thymic nude mice were weighed and homogenized with RIPA lysis buffer (Sigma-Aldrich, St. Louis, Mo.) and protease inhibitor cocktail (Sigma-Aldrich, St. Louis, Mo.). Tumor lysates were cleared by centrifugation and the protein concentration was determined using Bradford reagent (Sigma-Aldrich, St. Louis, Mo.). Equal amounts of protein (30 μg) were resolved on precast polyacrylamide gels (Thermo Fisher Scientific, Rockford, Ill.) and transferred to nitrocellulose membrane, 0.2 μm pore size (Thermo Fisher Scientific, Rockford, Ill.). The blots were blocked with 5% (w/v) nonfat dry milk for 2 h at room temperature and then probed with primary antibody overnight at 4° C. The primary antibodies were directed against the following proteins: human PTEN, human AKT and phospho-AKT (Ser473), human c-Myc, human CyclinD1 and human β-actin (Cell Signaling Technology, Beverly, Mass.). After three washes, incubation was followed by the reaction with horseradish peroxidase-conjugated secondary antibody for 1 h at room temperature. The immunoreactive bands were visualized using Image Studio 4.0-Western Analysis Ribbon (Li-Cor, Lincoln, Nebr.).
(Immunoblotting shows a protein as a band on a membrane.)

One may read the IC50 as the concentration needed to halve the response being measured. For `CNC(=O)c1nn(C)c2c1C(C)(C)Cc1cnc(Nc3ccc(N4CCN(C)CC4)cc3)nc1-2` [MILCICLIB, N,1,4,4-tetramethyl-8-((4-(4-methylpiperazin-1-yl)phenyl)amino)-4,5-dihydro-1H-pyrazolo[4,3-h]quinazoline-3-carboxamide], the cell migration entry in the test with MHCC97L cells [1] and in the test on HepG2.2.15 cells was “reduced cell migration” each time. The IC50 in the test with MHCC97H cells [2] was found to be 1300 nM. In addition, the “cell migration (EMT assay)” value in the test on MHCC97L cells [3] and with MHCC97H cells [4] was “statistically significant inhibition” in each case. Moreover, the PTEN expression entry in test [5] was “upregulation”. The “pAKT, c-Myc and cyclin D1 expression” value in test [5] was “reduction”.
